Results as given in US20110002987A1, “Nicorandil Carriers with Enhanced Stability” (RIVOPHARM SA, priority 2008, published 2011).

Assay: Stability tests of nicorandil tablets in alu/alu blister with desiccant system
Type: physicochemical
Conditions: stored in combination with molecular sieve instead of silica gel desiccant, 6 months
Protocol: Two batches of Nicorandil tablets, 10 mg (batch 043/07) and 20 mg (batch 044/07) respectively, were prepared and packed according to the invention, in alu/alu blister together with a desiccant system.
Silica gel and molecular sieves were compared as desiccant systems and among molecular sieves, systems with different capacity of water absorption were considered.
043/07A: silica gel system
043/07B: 1 lozenge of desiccant plastic composition (Molecular Sieve 4A as provided by CSP technologies), containing molecular sieve 4 Å, a base polymer of polypropylene and an elastomer (moisture absorbed in mg: about 64)
043/07C: 5 lozenges of desiccant plastic composition (Molecular Sieve 4A as provided by CSP technologies), containing molecular sieve 4 Å, a base polymer of polypropylene and an elastomer (moisture absorbed in mg: about 320)
The blisters were placed on stability at the following conditions for 6 months:
25±2° C./60±5% relative humidity (RH)
Nicorandil is particularly sensitive to humidity. Two impurities (named rrt0.14 and rrt0.25) are generated when the product is exposed to moisture and therefore were monitored during stability.

For `O=C(NCCO[N+](=O)[O-])c1cccnc1` [Nicorandil], which stability of nicorandil is on record?
Its stability of nicorandil is “more stable”.

What about the stability of nicorandil (listed as nicorandil) of the same compound?
The stability of nicorandil was “improved stability”.
